PubChem BioAssay (NCI)
Several values for one entry are separate records, joined by “and”; a condition that tells them apart may be missing. Identical values can stand only once.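 Compound exposure: 48 hours, 5 concentrations, 96-well plates. GI50 is the concentration that inhibits growth by half. At the TGI there is no net growth.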

Tests used:
Experiment in all cases: growth of human tumour cells (NCI), 48 h
OVCAR-3 ovarian = tested on: OVCAR-3 ovarian
UO-31 renal = tested on: UO-31 renal
KM12 colon = tested on: KM12 colon
SK-MEL-2 melanoma = tested on: SK-MEL-2 melanoma
HOP-92 NSCLC = tested on: HOP-92 NSCLC
EKVX NSCLC = tested on: EKVX NSCLC
SR leukemia = tested on: SR leukemia
HCT-15 colon = tested on: HCT-15 colon
OVCAR-4 ovarian = tested on: OVCAR-4 ovarian
MDA-MB-231 breast = tested on: MDA-MB-231 breast

SMILES	TGI (OVCAR-3 ovarian)	TGI (UO-31 renal)	TGI (KM12 colon)	TGI (SK-MEL-2 melanoma)	TGI (HOP-92 NSCLC)	TGI (EKVX NSCLC)	TGI (SR leukemia)	TGI (HCT-15 colon)	TGI (OVCAR-4 ovarian)	GI50 (HCT-15 colon)	GI50 (OVCAR-3 ovarian)	GI50 (KM12 colon)	GI50 (HOP-92 NSCLC)	GI50 (MDA-MB-231 breast)	TGI (MDA-MB-231 breast)	GI50 (EKVX NSCLC)	GI50 (UO-31 renal)	GI50 (SK-MEL-2 melanoma)	GI50 (SR leukemia)	GI50 (OVCAR-4 ovarian)
Cc1ccc2c(c1)-c1c3c(nn1-c1ccccc1)-c1ccccc1SC3O2 (stereo not drawn)	> 100 µM	> 100 µM	> 100 µM	> 100 µM	> 100 µM	> 100 µM														
COc1cc2c[n+](C)c3c4cc(OC)c(OC(C)C)cc4ccc3c2cc1OC	63.8 µM	> 100 µM	> 100 µM	40 µM	> 100 µM	> 100 µM	> 100 µM	> 100 µM	> 100 µM											
COc1ccc2c(CN3CCCC[C@H]3C(=O)O)cc3cc4c(cc3c2c1)OCO4	3.41 µM		52.5 µM		5.19 µM	6.77 µM		12.7 µM		1.4 µM	0.688 µM	3.69 µM	1.86 µM	0.799 µM	3.59 µM	3 µM				
C[C@H](OCc1ccccc1)C(=O)N1CCS(=O)(=O)N2CCC[C@@H]2C1=O	> 100 µM	> 100 µM	> 100 µM		> 100 µM	> 100 µM	> 100 µM	> 100 µM	> 100 µM											
Cc1ccccc1C1OC(=O)c2ccc3ccccc3c21 (stereo not drawn)	16.2 µM	10.9 µM	13.7 µM	5.98 µM	49.9 µM	17.5 µM	7.96 µM	9.44 µM	19.2 µM											
COC(C(=O)NN)c1ccccc1 (stereo not drawn)	> 100 µM	> 100 µM	> 100 µM	> 100 µM	> 100 µM	> 100 µM	> 100 µM	> 100 µM												
C/C(O)=C(/C=N/C(=S)Nc1ccc(S(N)(=O)=O)cc1)C(=O)Nc1ccccc1C	> 100 µM	> 100 µM	> 100 µM	> 100 µM	> 100 µM	> 100 µM		> 100 µM	> 100 µM						> 100 µM					
COc1cc2c(cc1OC)[C@H](C)N1CCc3cc(OC)c(OC)cc3[C@@H]1C2	> 100 µM	> 100 µM	> 100 µM	> 100 µM	> 100 µM	> 100 µM		> 100 µM	> 100 µM						> 100 µM					
O=C1Nc2ccc(Br)cc2C1=Nc1cccnc1	44.3 µM	29.7 µM	99.3 µM	57.2 µM	> 100 µM	65.1 µM		59.6 µM	25.1 µM						37.6 µM					
C=Cc1cncc(C#N)c1CCc1c(C#N)cncc1C=C	> 100 µM	> 100 µM	> 100 µM	> 100 µM	> 10 µM	> 100 µM	> 10 µM	> 100 µM	> 10 µM	> 100 µM	> 100 µM	> 100 µM				> 10 µM	> 100 µM	> 100 µM		
COc1cc(OC)c2nc(C)c3c(c2c1)SCC3	36.4 µM	48.8 µM	> 100 µM	67.5 µM		52.9 µM	52.2 µM	> 100 µM	38.5 µM						44.7 µM					
C=C/C=C/NC(=O)OCc1ccccc1	> 100 µM	> 100 µM	> 100 µM	> 100 µM	> 100 µM	> 100 µM	> 100 µM		> 100 µM											
CC1CCC/C1=C(/I)C(=O)c1ccccc1 (stereo not drawn)		> 100 µM	> 100 µM	> 100 µM		> 100 µM	78.1 µM	> 100 µM	> 100 µM						> 100 µM					
CCCCOC(=O)N1CCN(/[N+]([O-])=N/Oc2ccc([N+](=O)[O-])cc2[N+](=O)[O-])CC1	4.12 µM	41.3 µM	14.5 µM	21.8 µM		23.5 µM	> 100 µM	21.4 µM		3.99 µM	1.68 µM	3.65 µM		2.31 µM	5.63 µM	8.01 µM	3.84 µM	4.55 µM	> 100 µM	
CN(C(=O)C12C3C4C1C1C2C3C41C(N)=O)C(C)(C)C (stereo not drawn)	> 100 µM	> 100 µM	> 100 µM		> 100 µM	> 100 µM	> 100 µM		> 100 µM											
CC(=O)Nc1ccc(S(=O)(=O)N/N=C/CN2C(=O)c3ccccc3C2=O)cc1		> 100 µM	> 100 µM	> 100 µM		> 100 µM	> 100 µM	> 100 µM	> 100 µM											
C[C@@]12CCC(=O)c3coc(c31)C(=O)c1cc3c(cc12)C(=O)C=CC3=O	> 1 µM and 32.7 µM	> 1 µM and 30.9 µM	> 61.6 µM	> 1 µM and 45.1 µM	> 1 µM and 19.6 µM	> 1 µM and 48.6 µM	> 71.2 µM	> 1 µM and 32.7 µM	> 1 µM and 32.1 µM	> 1 µM	> 1 µM	> 1 µM	> 1 µM			> 1 µM	> 1 µM	> 1 µM	> 1 µM	> 1 µM
CC(CN(C)C)/C(=N\Nc1ccccc1)c1ccccc1 (stereo not drawn)	6.83 µM	3.28 µM	14.4 µM			35.6 µM	23.1 µM	11.1 µM	19.8 µM											
CCOC(=O)/C(C1=NCCN1)=C(\O)c1ccccc1	> 100 µM	> 100 µM	> 100 µM	> 100 µM		> 100 µM	> 100 µM	> 100 µM	> 100 µM											
c1cncc(C2N3CCCCC3[C@@H]3c4[nH]c5ccccc5c4CCN23)c1 (stereo partly drawn)	> 100 µM	> 100 µM		> 100 µM	> 100 µM	> 100 µM		> 100 µM	> 100 µM											
CCCCCCCCCCCCCCCC(=O)OCC1OC(n2cc(F)c(=O)[nH]c2=O)C(N)C(O)C1O (stereo not drawn)	9.72 µM	30.8 µM	33.3 µM		38.9 µM	35.6 µM			31.2 µM											
CC1=NN(C(=O)c2ccccc2O)C(=O)/C1=C/c1ccc(O)cc1	3.43 µM		> 100 µM			> 100 µM	> 100 µM	> 100 µM	> 100 µM						> 100 µM					
C=CCN=C(N/N=C/c1ccc([N+](=O)[O-])o1)NS(=O)(=O)c1cc(C(=O)Nc2ccc(Cl)cc2)c(Cl)cc1SC	14.1 µM	> 100 µM	> 100 µM	> 24.4 µM	> 100 µM	6.58 µM	> 23.6 µM	13.5 µM	> 34.1 µM	2.97 µM	1.57 µM	6.89 µM	4.94 µM			2.63 µM	> 49.9 µM		1.28 µM	
